{"source": "paper PMC4109385", "about": "(BMC Microbiology, 2014)", "molecular_target": "ClpC (with MecA) (Streptococcus mutans, UniProt Q8DS14)", "sequence (Q8DW33 whole entry)": "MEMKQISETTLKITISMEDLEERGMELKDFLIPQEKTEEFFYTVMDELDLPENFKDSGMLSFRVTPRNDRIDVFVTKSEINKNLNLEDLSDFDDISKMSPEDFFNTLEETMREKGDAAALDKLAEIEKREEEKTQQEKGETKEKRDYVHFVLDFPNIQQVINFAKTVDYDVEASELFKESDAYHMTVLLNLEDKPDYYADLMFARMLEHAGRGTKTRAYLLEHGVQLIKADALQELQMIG", "sequence (Q8DS14 entry or part of it)": "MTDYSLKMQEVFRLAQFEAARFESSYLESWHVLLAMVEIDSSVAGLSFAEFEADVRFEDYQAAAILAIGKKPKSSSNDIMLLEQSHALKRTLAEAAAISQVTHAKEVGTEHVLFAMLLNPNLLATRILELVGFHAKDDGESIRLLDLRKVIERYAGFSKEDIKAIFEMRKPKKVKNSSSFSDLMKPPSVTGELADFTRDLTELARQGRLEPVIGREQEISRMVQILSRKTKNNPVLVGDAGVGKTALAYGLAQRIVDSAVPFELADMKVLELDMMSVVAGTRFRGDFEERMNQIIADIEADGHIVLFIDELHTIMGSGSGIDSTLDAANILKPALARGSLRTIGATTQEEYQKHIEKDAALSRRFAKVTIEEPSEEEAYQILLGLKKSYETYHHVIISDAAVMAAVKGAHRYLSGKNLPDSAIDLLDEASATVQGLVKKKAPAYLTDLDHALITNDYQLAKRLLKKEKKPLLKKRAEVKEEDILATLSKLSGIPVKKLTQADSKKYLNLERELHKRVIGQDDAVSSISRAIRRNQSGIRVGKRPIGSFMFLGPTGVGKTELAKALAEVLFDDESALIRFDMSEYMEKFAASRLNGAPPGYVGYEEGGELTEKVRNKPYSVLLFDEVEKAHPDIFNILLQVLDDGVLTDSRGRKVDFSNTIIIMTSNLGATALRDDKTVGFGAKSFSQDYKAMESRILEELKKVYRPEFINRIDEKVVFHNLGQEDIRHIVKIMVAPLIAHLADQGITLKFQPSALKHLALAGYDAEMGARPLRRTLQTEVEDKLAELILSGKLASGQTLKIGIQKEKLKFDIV", "conditions": "2 mM ATP, 5 mM MgCl2, 100 mM KCl, 25 mM Tris-HCl pH 8.0, 37 °C; 0.3 uM proteins; MecA present", "data": [{"smiles": "Nc1ncnc2c1ncn2[C@@H]1O[C@H](COP(=O)(O)OP(=O)(O)OP(=O)(O)O)[C@@H](O)[C@H]1O", "note": "[ATP]", "values": [{"measurement": "malachite green ATPase assay (released orthophosphate)", "result": "the presence of MecA increased the ATPase activity of ClpC (Figure 6A)"}]}]}
